In patent publication US20240317755A1, “HETEROCYCLIC COMPOUND, AND INTERMEDIATE THEREOF, PREPARATION METHOD THEREFOR AND USE THEREOF” (WUHAN LL SCIENCE AND TECHNOLOGY DEVELOPMENT CO., LTD., priority 2021, published 2024):
Like-named read-outs stand apart in the source and are kept apart here.

Assay: Tissue distribution in CD-1 mice after single intragastric administration
Type: in vivo
Conditions: mouse, oral, male CD-1 mice, 10 mg/kg intragastric
Description: Mice: CD-1 mice, SPF grade, 9, male, weighting 18 to 22 g (source: SPF (Beijing) Biotechnology Co., Ltd., certificate number: 110324200103036532).
Dispensing: After accurately weighing compound L015, 20% solutol of the required volume was added thereto first, sonicated for 20 min and stirred for 1.5 hours until no visible particles were visible to the naked eye, and the middle layer of the drug solution was taken for drug administration. 2 parts of the top, middle, and bottom layers of the suspension were taken, and 2 parts of the middle layer of the clarified solution were taken, and 100 μL of each part was accurately aspirated into a 1.5 mL EP tube. Samples were taken before administration, and after sampling, the samples were stored in a −80° C. refrigerator and sent together with the plasma samples for bioanalytical test.
Animals were randomly divided into 3 groups. Compound L015 was administered at 3 different time points, with 3 animals per group, all males. All mice were given a single intragastric administration with an administration volume of 10 mL/kg. The specific grouping and administration information is as follows:
After the administration was completed, the animals in each group were anesthetized by intraperitoneal injection of 1% pentobarbital sodium (the administration volume was 0.06 mL/10 g) 5 minutes before their respective time points, and about 0.3 mL of blood was collected in an anticoagulant EP tube (containing 4 μL of EDTA-K2, 375 mg/mL), which was gently inverted for 3 times and stored in an ice box (no more than 30 minutes), centrifuged at 4° C. for 10 minutes with 3500×g. The supernatant was transferred to a labeled EP tube for bioanalytical test. If it could not be analyzed the same day, it was stored at −80° C. until further testing (be careful not to perform multiple freezing/thawing processes).
After the blood was taken, the abdominal cavity was quickly opened, and the abdominal aorta and vein of the […] were cut. After the blood was drained, the heart, liver, spleen, lung, kidney, and brain of the rat were taken, respectively. After the tissue was taken, the tissue was immediately rinsed with normal saline to remove any residual blood on the surface, blotted dry with filter paper, and the connective tissue was removed and weighed. The homogenization tube was placed in an ice water bath, and the tissue sample homogenate was thoroughly homogenized with a high-speed homogenizer and sent for bioanalytical test. If it could not be analyzed the same day, it was stored at −80° C. until further testing (be careful not to perform multiple thawing/freezing processes).
1.5 Sample analysis method 1.5.1 Experimental instruments: • High performance liquid chromatography pump (pump): Exion LC AD Pump, Sciex Company • Auto sampler: Exion LC AD Autosampler, Sciex Company • Column oven: Exion LC AD Column Oven, Sciex Company • Mass spectrometer: AB Sciex Qtrap 4500 • High-speed refrigerated centrifuge (centrifuge): Thermo Fisher, ST16R, GG1206085-093 • Analytical balance (electronic balance): Mettler Toledo, MS-105D, GG1206363 • Micro vortex (vortex): Shanghai Huxi Analysis Instrument Factory, WH-2, GG1206487 1.5.2 Experimental materials: mouse plasma and tissue
Sample pretreatment process: 3 μL of working solution was taken, and 57 μL of blank matrix was added into a 1.5 mL centrifuge tube, and then 240 μL of acetonitrile solution containing 200 ng/mL tolbutamide and labetalol mixed with 0.1% formic acid was added to precipitate protein. The mixture was vortexed and mixed for 1 minute, and then centrifuged in a 4° C. centrifuge at 13000 rpm for 15 minutes. 100 μL of supernatant was taken and added to another 96 deep well plate, and 100 μL of methanol:water (1:3, v:v) solution containing 0.1% FA was added. The mixture was mixed with shaking for 1 min, and centrifuged at 3500 rpm for 5 min in a 96-well plate centrifuge and the sample was injected directly. […]

- concentration at 0.167 h (brain, 20% solutol, read-out: concentration in brain): 706 ng/g
- concentration at 1 h (brain, 20% solutol, 1 hour): 161 ng/g
- concentration at 10 h (brain, 20% solutol, 10 hours): 25.9 ng/g
- Kp at 0.167 h (brain, read-out: brain, times of the plasma concentration): 0.05
- Kp at 1 h (brain, 1 hour, read-out: brain, times of the plasma concentration): 0.19
- Kp at 10 h (brain, 10 hours, read-out: brain, times of the plasma concentration): 0.09
- concentration at 0.167 h (kidney, 20% solutol, read-out: concentration in kidney): 1470 ng/g
- Kp at 0.167 h (kidney, read-out: kidney, times of the plasma concentration): 2.5
- Kp at 1 h (kidney, 1 hour, read-out: kidney, times of the plasma concentration): 2.51
- Kp at 10 h (kidney, 10 hours, read-out: kidney, times of the plasma concentration): 1.5
- concentration at 0.167 h (liver, 20% solutol, read-out: concentration in liver): 3260 ng/g
- Kp at 0.167 h (liver, read-out: liver, times of the plasma concentration): 5.55
- Kp at 1 h (liver, 1 hour, read-out: liver, times of the plasma concentration): 4.53
- Kp at 10 h (liver, 10 hours, read-out: liver, times of the plasma concentration): 5.05
SMILES: O=C(c1ccc(F)cc1C(F)(F)F)c1cnc2n1CCN(c1cn[nH]c(=O)c1Cl)C2 [Compound 1-6, 4-chloro-5-(3-(4-fluoro-2-(trifluoromethyl)benzoyl)-5,6-dihydroimidazo[1,2-a]pyrazin-7(8H)-yl)pyridazin-3(2H)-one]
